This is an account of results in patent US10077293B2, “Antimicrobial peptide analogues derived from abalone (Haliotis discus) and antimicrobial pharmaceutical composition containing the same” (priority 2016, dated 2018).

Entries after “also recorded” stand apart in the source; their conditions may differ. Ends that are not written are not given here.

One assay concerns P. aeruginosa KCTC2004. The experiment in a line: Ultrasensitive radial diffusion assay (URDA), antimicrobial activity. Format: cell-based, Pseudomonas aeruginosa. The note with it: P. aeruginosa KCTC2004, Gram −. How it is done: (§1) Four species of Gram positive bacteria (Bacillus subtilis, Staphylococcus epidermidis, […] and Propionibacterium acnes), five species of Gram negative bacteria (E. coli D31, E. coli ML35p, Shigella flexneri, Pseudomonas aeruginosa and Vibrio parahaemolyticus) and one yeast species (Candida albicans) were used for experiments. The antimicrobial activity was measured by ultrasensitive radial diffusion assay (URDA) using two layers of media of different concentrations. First, the microorganisms were pre-cultured in each medium for 18 hours and the concentration of the microorganisms was adjusted to 84% T (≈1×10^8 CFU/mL) using a colorimeter (Product No. 52-1210, BioMerieux, Inc., USA). Then, 0.5 mL of the diluted microorganism solution was added to an underlay gel containing 9.5 mL of 0.03% TSB, 1% type I agarose and 10 mM phosphate buffer (PB; pH 6.5) and plated and solidified on a plate after mixing well. After boring a well with a diameter of 2.5 mm on the solidified plate using a punch, 5 μL of each analogue solution was introduced. All the analogues were dissolved in 5 μL of 0.01% acetic acid to avoid any effect of solvent. After the analogue permeated into the medium, the microorganisms were cultured for 3 hours and an overlay gel containing 10 mL of 6% TSB, 1% type I agarose and 10 mM phosphate buffer (pH 6.5) was poured and solidified. Then, the microorganisms were cultured again for 18 hours at the same temperature. Next day, the antimicrobial activity was determined by measuring the size (diameter) of a clear zone formed around the well. Piscidin 1, an antimicrobial peptide derived from the mast cells of a hybrid striped bass, was used as a control.

The test system of assay [1] is C. albicans. The description is as above. It is filed as cell-based, Candida albicans. On the procedure: as §1
A further assay has as its system S. mutans KCCM40105. The description is as above. Particulars: S. mutans KCCM40105, Gram +. It is filed as cell-based, Streptococcus mutans. On the procedure:
as §1

In assay [2] the test system is E. coli ML35p. The experiment in a line: Killing kinetics study. Format: cell-based. On the procedure: For killing kinetics study of the analogues whose bactericidal process was identified, killing rate for each analogue was investigated at 1×MIC and 5×MIC for 60 minutes. For this, the analogue was added to an e-tube containing 10^6 CFU/mL of E. coli ML35p. While incubating at 37° C., 10 μL of the solution was taken from the tube at predetermined times (5, 10, 20, 30, 40, 50 and 60 minutes after the addition of the analogue) and plated on a TSA plate. Then, the number of formed colonies was counted. As control groups, no analogue or piscidin 1 was added. The killing % for the analogues was represented as the number of formed colonies relative to that when no analogue was added.

The subject of assay [3] is E. coli ML35p. The experiment in a line: Ultrasensitive radial diffusion assay (URDA), antimicrobial activity. It is filed as cell-based. The note with it: Gram −. How it is done:
as §1

For assay [4], the system named is Shigella flexneri KCTC2009. Described as above. Format: cell-based. The note with it: Shigella flexneri KCTC2009, Gram −. On the procedure: as §1
Assay [5] has as its system Vibrio parahaemolyticus KCCM42264. The description is as above. It is filed as cell-based. How it is done: as §1
A further assay has as its system E. coli D31. Described as above. Format: cell-based. Particulars: E. coli D31, Gram −. How it is done:
as §1

For assay [6], the system named is E. coli ML35p. The experiment in a line: Chromogenic bacteriolytic plate assay. It is filed as cell-based. The note with it: E. coli ML35p (FIG. 6). How it is done:
In order to investigate the lytic activity of the analogues for bacterial membrane, chromogenic bacteriolytic plate assay was conducted using E. coli ML35p containing a chromosomal IPTG-inducible β-galactosidase gene (Mardones, G., Venegas, A. Chromogenic plate assay distinguishing bacteriolytic from bacteriostatic activity of an antibiotic agent. J Microbiol Methods. 2000, 40(3), 199-206). After inoculating 2 mL of E. coli ML35p to TSB and culturing at 37° C. for 16-18 hours, a mixture of 50 μL of the cultured microorganism solution, 10 μL of 1 mM IPTG and 50 μL of 50 mg/mL X-gal was poured onto TSB containing 0.8% agarose at 42° C. the next day. After boring a well on the solidified plate, 5 μL of each peptide analogue solution was introduced and incubation was conducted for 3 hours. Then, after pouring 2×TSB containing 10 mL of 1.5% agarose to the plate and solidifying, incubation was conducted again for 16-18 hours. After the incubation, the size (diameter) of a clearing zone and the presence or absence of a blue line at the edge portion were investigated.

Another assay concerns B. subtilis KCTC1021. The assay can be described thus: Ultrasensitive radial diffusion assay (URDA), antimicrobial activity. It is filed as cell-based, Bacillus subtilis. The note with it: B. subtilis KCTC1021, Gram +. How it is done: as §1
Assay [7] concerns C. albicans. The note with it: parent peptide, background statement; cited from earlier work.
The subject of assay [8] is Gram positive and Gram negative bacteria. Particulars: background statement; cited from earlier work.

For the substance “FFHHIFRGIVHVGKTIHRLVTG-NH2 [Piscidin 1, reference compound]”, the Minimal effective concentration in the assay with P. aeruginosa KCTC2004 is 8.0 µg/mL; in the assay with C. albicans [1] (C. albicans KCCM42264 (as printed in Table 2), yeast), over 62.5 µg/mL; in the assay on C. albicans [1] (C. albicans KCTC7965, yeast), over 62.5 µg/mL; in the assay on S. mutans KCCM40105 it was 3.2 µg/mL; with E. coli ML35p [3] it was 2.3 µg/mL; in [4], 8.0 µg/mL. The Minimal effective concentration in assay [5] was 3.0 µg/mL; with E. coli D31 it was 3.8 µg/mL; with B. subtilis KCTC1021 it was 7.5 µg/mL. Moreover, the “time to kill E. coli ML35p” value in the assay on E. coli ML35p [2] (1×MIC) was at most 20 min; in the assay with E. coli ML35p [2] (5×MIC) it was at most 5 min. The “bacteriolytic activity: blue line at the edge portion of the clearing zone” value in the assay on E. coli ML35p [6] is “showed an edge line”.

Take “hdMolluscidin (AATKPKKAGAEAAPKKPAKKQTKKKPAKKAGGKKKPKRAGAKKAKK; listed as Haliotis discus) [antimicrobial peptide consisting of 46 amino acids, purified from the gill of abalone (Haliotis discus); parent peptide]”: the “antimicrobial activity against C. albicans (in words)” value with C. albicans [7] is on record as “little antimicrobial activity; also recorded: no activity”. Besides, the “antimicrobial activity against Gram positive and Gram negative bacteria (in words)” value in assay [8] is on record as “strong antimicrobial activity”.
